This assay has as its target T1, Angiotensin II receptor (AT-1) type-1 (Rattus norvegicus, UniProt P29089+P25095).
T1 sequence (P29089 whole entry): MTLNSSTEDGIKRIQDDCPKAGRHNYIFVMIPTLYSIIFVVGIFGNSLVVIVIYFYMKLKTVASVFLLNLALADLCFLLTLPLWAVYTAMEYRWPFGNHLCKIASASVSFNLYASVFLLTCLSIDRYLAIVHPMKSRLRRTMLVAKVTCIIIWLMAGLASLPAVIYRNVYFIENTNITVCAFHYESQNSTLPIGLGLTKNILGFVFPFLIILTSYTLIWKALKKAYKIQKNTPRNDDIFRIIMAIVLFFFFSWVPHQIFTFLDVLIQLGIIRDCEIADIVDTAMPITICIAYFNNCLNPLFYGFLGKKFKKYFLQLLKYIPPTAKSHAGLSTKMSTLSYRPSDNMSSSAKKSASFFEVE
T1 sequence (P25095 whole entry): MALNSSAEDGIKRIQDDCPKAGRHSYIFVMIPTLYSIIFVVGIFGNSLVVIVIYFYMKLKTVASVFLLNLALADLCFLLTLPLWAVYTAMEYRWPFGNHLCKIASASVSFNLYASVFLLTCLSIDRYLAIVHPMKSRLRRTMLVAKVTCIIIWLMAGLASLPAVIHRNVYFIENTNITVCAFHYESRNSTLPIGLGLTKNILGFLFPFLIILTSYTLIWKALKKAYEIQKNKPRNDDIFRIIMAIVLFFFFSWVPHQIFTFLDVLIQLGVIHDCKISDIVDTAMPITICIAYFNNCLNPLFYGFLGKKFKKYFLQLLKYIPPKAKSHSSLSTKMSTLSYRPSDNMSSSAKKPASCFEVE
Briefly: Displacement of [125I]-angiotensin 2 from angiotensin AT1 receptor in Rattus norvegicus (rat) uterine membranes.

As for `CCCCc1nn(CC(=O)C23CC4CC(CC(C4)C2)C3)c(=O)n1Cc1ccc(-c2ccccc2-c2nn[nH]n2)cc1`, the IC50 is reported as 25 nM and the pIC50 stood at 7.602.

As for `CCCCc1nn(CC(OCC)c2ccccc2)c(=O)n1Cc1ccc(-c2ccccc2-c2nn[nH]n2)cc1` (stereo unspecified), the IC50 amounted to 15 nM and the pIC50 came out at 7.824.

For `CCCCc1nn(CC(OCC(=O)O)c2ccccc2)c(=O)n1Cc1ccc(-c2ccccc2-c2nn[nH]n2)cc1` (stereo unspecified), the IC50 is listed as 30 nM and the negative logarithm of the IC50 (pIC50) was found to be 7.523.

Compound `CCCCc1nn(CCCCC(=O)O)c(=O)n1Cc1ccc(-c2ccccc2-c2nn[nH]n2)cc1` returned a half-maximal inhibitory concentration (IC50) of 12 nM and a pIC50 of 7.921.

`CCCCc1nn(CC(OC)c2ccccc2)c(=O)n1Cc1ccc(-c2ccccc2-c2nn[nH]n2)cc1` (stereo unspecified) yielded a 50% inhibitory concentration (IC50) of 12 nM and a negative-log IC50 (pIC50) of 7.921.

On to `CCCCc1nn(CC(O)c2ccccc2)c(=O)n1Cc1ccc(-c2ccccc2-c2nn[nH]n2)cc1` (stereo unspecified), for which the IC50 is 3.6 nM and the pIC50 came out at 8.444.

Consider `CCCCc1nn(CC(O)c2cc(OC)ccc2OC)c(=O)n1Cc1ccc(-c2ccccc2-c2nn[nH]n2)cc1` (stereo unspecified), for which the IC50 came out at 22 nM and the negative-log IC50 (pIC50) amounted to 7.658.

`CCCCc1nn(C(Cc2ccccc2)C(=O)c2ccccc2)c(=O)n1Cc1ccc(-c2ccccc2-c2nn[nH]n2)cc1` (stereo unspecified) displayed an IC50 of 5800 nM and a negative-log IC50 (pIC50) of 5.237.

Compound `CCCCc1nn(CCC2CCCCC2)c(=O)n1Cc1ccc(-c2ccccc2-c2nn[nH]n2)cc1` yielded an IC50 of 18 nM and a pIC50 of 7.745.

With `CCCCc1nn(CC(=O)OC(C)(C)C)c(=O)n1Cc1ccc(-c2ccccc2-c2nn[nH]n2)cc1`, the 50% inhibitory concentration (IC50) is recorded as 16 nM and the pIC50 turned out to be 7.796.

Regarding `CCCCc1nn(CC(OCCC)c2ccccc2)c(=O)n1Cc1ccc(-c2ccccc2-c2nn[nH]n2)cc1` (stereo unspecified), the concentration for half-maximal inhibition (IC50) was 45 nM and the negative logarithm of the IC50 (pIC50) stood at 7.347.

With `CCCCc1nn(C(CC(=O)OCC)C(=O)c2ccccc2)c(=O)n1Cc1ccc(-c2ccccc2-c2nn[nH]n2)cc1` (stereo unspecified), the IC50 came to 36 nM and the pIC50 is 7.444.

Take `CCCCc1nn(CCCc2ccccc2)c(=O)n1Cc1ccc(-c2ccccc2-c2nn[nH]n2)cc1`: the IC50 was 18 nM and the negative-log IC50 (pIC50) stood at 7.745.

In turn, `CCCCc1nn(CCc2ccccc2)c(=O)n1Cc1ccc(-c2ccccc2-c2nn[nH]n2)cc1` displayed an IC50 of 3.1 nM and a pIC50 of 8.509.

`CCCCc1nn(CC(=O)c2cc(OC)ccc2OC)c(=O)n1Cc1ccc(-c2ccccc2-c2nn[nH]n2)cc1` yielded a half-maximal inhibitory concentration (IC50) of 21 nM and a pIC50 of 7.678.

As to `CCCCc1nn(Cc2ccccc2)c(=O)n1Cc1ccc(-c2ccccc2-c2nn[nH]n2)cc1`, the IC50 was 16 nM and the negative-log IC50 (pIC50) was found to be 7.796.

Turning to `CCCCc1nn(CC(OCc2ccccc2)c2ccccc2)c(=O)n1Cc1ccc(-c2ccccc2-c2nn[nH]n2)cc1` (stereo unspecified), the concentration for half-maximal inhibition (IC50) is given as 280 nM and the pIC50 was 6.553.

For `CCCCc1nn(CC(OCC(=O)OCC)c2ccccc2)c(=O)n1Cc1ccc(-c2ccccc2-c2nn[nH]n2)cc1` (stereo unspecified), the concentration for half-maximal inhibition (IC50) came to 180 nM and the pIC50 is listed as 6.745.

Compound `CCCCc1nn(CC(=O)OCC)c(=O)n1Cc1ccc(-c2ccccc2-c2nn[nH]n2)cc1` came in with an IC50 of 9 nM and a pIC50 of 8.046.

Regarding `CCCCCCCCn1nc(CCCC)n(Cc2ccc(-c3ccccc3-c3nn[nH]n3)cc2)c1=O`, the IC50 was 170 nM and the negative logarithm of the IC50 (pIC50) is 6.77.

The compound `CCCCc1nn(CC(=O)O)c(=O)n1Cc1ccc(-c2ccccc2-c2nn[nH]n2)cc1` registered an IC50 of 91 nM and a negative logarithm of the IC50 (pIC50) of 7.041.

Turning to `CCCCc1nn(CCCCCC(=O)OCC)c(=O)n1Cc1ccc(-c2ccccc2-c2nn[nH]n2)cc1`, the concentration for half-maximal inhibition (IC50) came to 9.8 nM and the pIC50 came out at 8.009.

In the case of `CCCCc1nn(CCCCCC(=O)O)c(=O)n1Cc1ccc(-c2ccccc2-c2nn[nH]n2)cc1`, the IC50 was found to be 17 nM and the pIC50 turned out to be 7.77.

`CCCCCCn1nc(CCCC)n(Cc2ccc(-c3ccccc3-c3nn[nH]n3)cc2)c1=O` gave a concentration for half-maximal inhibition (IC50) of 8.7 nM and a negative-log IC50 (pIC50) of 8.06.

The compound `CCCCc1nn(CCCC)c(=O)n1Cc1ccc(-c2ccccc2C(=O)O)cc1` came in with an IC50 of 101 nM and a negative-log IC50 (pIC50) of 6.996.

For the compound `CCCCc1nn(C(C)(C)C(=O)c2ccccc2)c(=O)n1Cc1ccc(-c2ccccc2-c2nn[nH]n2)cc1`, the half-inhibitory concentration (IC50) came to 43 nM and the negative logarithm of the IC50 (pIC50) is recorded as 7.367.

In turn, `CCCCc1nnc(O)n1Cc1ccc(-c2ccccc2-c2nn[nH]n2)cc1` returned an IC50 of 42 nM and a pIC50 of 7.377.

In turn, `CCCCCn1nc(CCCC)n(Cc2ccc(-c3ccccc3-c3nn[nH]n3)cc2)c1=O` came in with an IC50 of 5.6 nM and a negative-log IC50 (pIC50) of 8.252.

`CCCCc1nnc(O)n1Cc1ccc(-c2ccccc2C(=O)O)cc1`: the concentration for half-maximal inhibition (IC50) is given as 1500 nM and the negative-log IC50 (pIC50) is listed as 5.824.

For `CCCCc1nn(CCC(C)CC(C)(C)C)c(=O)n1Cc1ccc(-c2ccccc2-c2nn[nH]n2)cc1` (stereo unspecified), the 50% inhibitory concentration (IC50) is listed as 35 nM and the negative-log IC50 (pIC50) stood at 7.456.

Turning to `CCCCc1nn(CCC)c(=O)n1Cc1ccc(-c2ccccc2-c2nn[nH]n2)cc1`, the IC50 is on record as 15 nM and the pIC50 is on record as 7.824.

On to `CCCCc1nn(Cc2ccc3ccccc3c2)c(=O)n1Cc1ccc(-c2ccccc2-c2nn[nH]n2)cc1`, for which the IC50 worked out at 280 nM and the pIC50 is given as 6.553.

The compound `CCCCc1nn(C(C)CC)c(=O)n1Cc1ccc(-c2ccccc2-c2nn[nH]n2)cc1` (stereo unspecified) displayed an IC50 of 10 nM and a negative-log IC50 (pIC50) of 8.

These data come from ChEMBL document CHEMBL3045845, “Predicting 3H-1,2,4-triazolinones as angiotensin II receptor antagonists: 2D and 3D QSAR by kNN-molecular field analysis approach” (Med Chem Res, 2012).
